Measured values published in US11311512B2, “Lymph directing prodrugs” (priority 2014, dated 2022).
Several values for one entry are separate records, joined by “and”; a condition that tells them apart may be missing. Equal entries are not always repeated. Where two headings read alike, the source gives them in different places.

Key:
[1] = Method: Lipid formulations containing the compound of interest were then administered to the animals, the lymph collected and drug concentrations in the lymph subsequently quantified.
Lipid-based formulations of the compounds of the invention or control compounds were prepared as previously described (Trevaskis, N. L. et al., Pharmaceutical Research, 2005, 22(11), 1863-1870). Briefly, approximately 2 mg of the compound (1 mg in the case of Compound 35 and Compound 1), 40 mg oleic acid and 25 mg Tween 80 were mixed in a glass vial until equilibrated (gentle heat (below 50° C.) may be applied for a short period).
[…] This was to eliminate the potential for the relatively high and variable levels of endogenous testosterone in male rats interfering with the quantification of exogenously dosed testosterone. Rats (240-320 g) were maintained on a standard diet and fasted overnight with free access to water prior to experiments. Anaesthetised rats were placed on a heated pad at 37° C. and cannulas were inserted into the duodenum (for formulation administration and rehydration), mesenteric lymph duct (for lymph collection) and carotid artery (for blood collection) as previously described (Edwards et al. Advanced Drug Delivery Reviews 2001, 50(1), 45-60). Post-surgery, rats were re-hydrated for 0.5 h via intraduodenal infusion of normal saline at 2.8 mL/h. The lipid formulations were infused into the duodenum at 2.8 mL/h for 2 h, after which the infusion was changed to 2.8 mL/h normal saline for the remainder of the experiment. Lymph was continuously collected for 6 to 8 h into pre-weighed Eppendorf tubes containing 10 μL of 1,000 IU/mL heparin. The collection tubes were changed hourly and lymph flow was measured gravimetrically. Aliquots of hourly lymph samples were stored at −80° C. prior to assay.
Drug concentration in lymph is expressed as total drug and includes free drug and drug associated with different glycerides. This is assayed by hydrolysis of lymph (to liberate drug from any re-esterified glycerides) prior to assessment of free drug.
FIG. 1 illustrates the cumulative lymphatic transport of total testosterone related derivatives (% of administered dose) versus time in anaesthetised mesenteric lymph duct cannulated female SD rats following intraduodenal infusion of formulations from 0 to 2 h. Each Formulation contained 2 mg of the exemplified compound or the control, testosterone undecanoate (TU), dispersed in 40 mg oleic acid, 25 mg Tween 80 and 5.6 ml PBS.

[2] = Pharmacokinetic study in rats, testosterone plasma concentrations after oral gavage; details: testosterone in plasma, oral gavage; for Tmax / AUC0-24 h / Cmax: conscious carotid artery cannulated SD female rats; for AUC0-24 h / Cmax: normalized to 2 mg/kg equivalent testosterone dose
Method: In order to assess the oral bioavailability of the compounds of the invention, pharmacokinetic studies were conducted in rats and dogs. […] The rats were then allowed to regain consciousness and fasted overnight prior to the commencement of experiments with free access to water. […] The oral formulation of Compound 2 contained 3 mg of the compound, 20 mg oleic acid and 12.5 mg Tween 80 dispersed in 1 mL PBS. Blood samples were collected from the carotid artery cannula from 5 min prior to administration up to 24 h post-dosing and centrifuged at 5000 rpm for 5 min to separate plasma. […] Plasma samples were stored at −80° C. prior to assay by HPLC-MS-MS. In this case samples were assayed for free drug (i.e. non-glyceride associated drug) and were not hydrolysed prior to assay (as was the case with the lymph samples).
FIG. 12 illustrates dose-normalized testosterone plasma concentrations following oral gavage of formulations to conscious, carotid artery cannulated female SD rats. Formulations contained 1 mg of TU, or 2 mg of compounds of the invention containing testosterone dispersed in 40 mg oleic acid, 25 mg Tween 80 and 2 ml PBS. Doses are normalized to a 2 mg/kg equivalent dose of testosterone. Data are shown as mean±SEM for all groups (n=4 or 3 for each group). The embedded figure is the plot of the dose-normalized plasma AUC0-24h (nmol×h/L) of testosterone in the form of a bar graph.

[3] = anaesthetised, mesenteric lymph-duct cannulated male SD rats, intraduodenal infusion, MET, ATV, ASP, SER or CEL derivatives
[4] = anaesthetised, mesenteric lymph-duct cannulated male SD rats, intraduodenal infusion 0-2 h, cumulative over 8 h
[5] = lymphatic transport of total MPA derivatives, male SD rats, intraduodenal infusion
[6] = male, Sprague-Dawley, rat, in vivo

1-(1,3-Bis(palmitoyloxy)propan-2-yl) 10-(1-(isopropylamino)-3-(4-(2-methoxyethyl)phen-oxy)propan-2-yl) decanedioate [Compound 3]
Transport of total drug derivatives in lymph (% of dose) [1, 3]: 14.2 ± 1.5 % of dose
Increase fold (compared with parent drug group) ([1]; lymphatic transport of total drug derivatives, male SD rats, intraduodenal infusion): 591.7 fold

CCCCCCCCCCCCCCCC(=O)OCC(COC(=O)CCCCCCCCCCCCCCC)OC(=O)C(C)CCCOC(=O)CCC(C)=CCc1c(O)c2c(c(C)c1OC)COC2=O (mixture of isomers) [Compound 36]
Transport of total MPA derivatives in lymph (% of dose) [1, 4]: 9.1 % of dose and 9.1 ± 1.4 % of dose
Fold increase (compared with MPA dosed group) [1, 5]: 54.6 fold

CCCCCCCCCCCCCCCC(=O)OCC(COC(=O)CCCCCCCCCCCCCCC)OC(=O)C(C)CCCCOC(=O)CCC(C)=CCc1c(O)c2c(c(C)c1OC)COC2=O (mixture of isomers) [Compound 37]
Transport of total MPA derivatives in lymph (% of dose) [1, 4]: 12.6 % of dose and 12.6 ± 1.7 % of dose
Fold increase (compared with MPA dosed group) [1, 5]: 75.0 fold

CCCCCCCCCCCCCCCC(=O)OCC(COC(=O)CCCCCCCCCCCCCCC)OC(=O)CC(C)CCOC(=O)CCC(C)=CCc1c(O)c2c(c(C)c1OC)COC2=O (mixture of isomers) [Compound 38]
Transport of total MPA derivatives in lymph (% of dose) [1, 4]: 12.1 % of dose and 12.1 ± 1.0 % of dose
Fold increase (compared with MPA dosed group) [1, 5]: 72.3 fold

CCCCCCCCCCCCCCCC(=O)OCC(COC(=O)CCCCCCCCCCCCCCC)OC(=O)CC(C)CCCCCCCCCCCCOC(=O)CCC(C)=CCc1c(O)c2c(c(C)c1OC)COC2=O (mixture of isomers) [Compound 39]
Transport of total MPA derivatives in lymph (% of dose) [1, 4]: 28.4 % of dose and 28.4 ± 3.2 % of dose
Fold increase (compared with MPA dosed group) [1, 5]: 167.0 fold

CC(=O)Oc1ccccc1C(=O)O [ASP, aspirin, reference compound]
Increase fold (compared with parent drug group) [1, 6]: 1.0 fold
Transport of total drug derivatives in lymph (% of dose) [1, 6]: 1.3 ± 0.2 % of dose

CCCCCCCCCCCCCCCC(=O)OCC(COC(=O)CCCCCCCCCCCCCCC)OC(=O)CCCCCCCCC(=O)Oc1cc(C)cc(C)c1C(C)(C)CC(=O)NS(=O)(=O)c1ccc(-n2nc(C(F)(F)F)cc2-c2ccc(C)cc2)cc1 [Compound 5]
Transport of total drug derivatives in lymph (% of dose) [1, 3]: 15.7 ± 1.3 % of dose

CCCCCCCCCCCCCCCC(=O)OCC(COC(=O)CCCCCCCCCCCCCCC)OC(=O)CCCC(=O)O[C@H]1CC[C@H]2[C@@H]3CCC4=CC(=O)CC[C@]4(C)[C@H]3CC[C@]12C [Compound 10]
Transport of total TST derivatives in lymph (% of dose) ([1]; anaesthetised, mesenteric lymph-duct cannulated female SD rats, intraduodenal infusion 0-2 h, cumulative over 8 h): 14.5 % of dose
Fold increase (compared with control group dosed with TU) ([1]; lymphatic transport of total TST derivatives, female SD rats, intraduodenal infusion): 7.7 fold
AUC0-24 h fold increase compared with TU group ([2]; SD female rats, dose-normalized): 2.8 fold and 2.9 fold
Tmax [2]: 1.0 ± 0.0 h and 1.1 ± 0.1 h
AUC0-24 h [2]: 0.0191 ± 0.0024 µM·h and 0.0196 ± 0.0008 µM·h
Cmax [2]: 19 nM and 13.7 nM

CCCCCCCCCCCCCCCC(=O)OCC(COC(=O)CCCCCCCCCCCCCCC)OC(=O)CCCCC(=O)Oc1cc(C)cc(C)c1C(C)(C)CC(=O)O[C@H]1CC[C@H]2[C@@H]3CCC4=CC(=O)CC[C@]4(C)[C@H]3CC[C@]12C [Compound 22, 1,3-Bis(palmitoyloxy)propan-2-yl (2-(4-(((8R,9S,10R,13S,14S,17S)-10,13-dimethyl-3-oxo-2,3,6,7,8,9,10,11,12,13-14,15,16,17-tetradecahydro-1H-cyclopenta[a]phenanthren-17-yl)oxy)-2-methyl-4-oxobutan-2-yl)-3,5-dimethylphenyl) adipate]
Tmax [2]: 1.0 ± 0.0 h
AUC0-24 h [2]: 0.2691 ± 0.0588 µM·h
Cmax [2]: 171 ± 27 nM

CCCCCCCCCCCCCCCC(=O)OCC(COC(=O)CCCCCCCCCCCCCCC)OC(=O)CCCCCCCCC(=O)Oc1cc(C)cc(C)c1C(C)(C)CC(=O)O[C@H]1CC[C@H]2[C@@H]3CCC4=CC(=O)CC[C@]4(C)[C@H]3CC[C@]12C [Compound 26]
Tmax [2]: 1.1 ± 0.1 h
AUC0-24 h [2]: 0.6173 ± 0.1778 µM·h
Cmax [2]: 487 ± 134 nM

CCCCCCCCCCCCCCCC(=O)OCC(COC(=O)CCCCCCCCCCCCCCC)OC(=O)CCCCCCCOC(=O)CC/C(C)=C/Cc1c(O)c2c(c(C)c1OC)COC2=O [Compound 33]
Transport of total MPA derivatives in lymph (% of dose) [1, 4]: 10.5 ± 0.7 % of dose
Fold increase (compared with MPA dosed group) [1, 5]: 62.8 fold

CCCCCCCCCCCCCCCC(=O)OCC(COC(=O)CCCCCCCCCCCCCCC)OC(=O)CCCCCCCCCCCCCCOC(=O)CC/C(C)=C/Cc1c(O)c2c(c(C)c1OC)COC2=O [Compound 34]
Transport of total MPA derivatives in lymph (% of dose) [1, 4]: 22.1 % of dose and 22.1 ± 3.5 % of dose
Transport of total MPA derivatives in lymph (% of dose) ([1]; anaesthetised, mesenteric lymph-duct cannulated male SD rats, intraduodenal infusion 0-2 h, cumulative over 8 h, listed as compound 34): 22.1 % of dose
Fold increase (compared with MPA dosed group) [1, 5]: 132.0 fold

CCCCCCCCCCCCCCCC(=O)OCC(COC(=O)CCCCCCCCCCCCCCC)OC(=O)CCCCCCCCCCCCCCCCCCCCOC(=O)CC/C(C)=C/Cc1c(O)c2c(c(C)c1OC)COC2=O [Compound 35]
Transport of total MPA derivatives in lymph (% of dose) [1, 4]: 9.7 ± 1.0 % of dose
Fold increase (compared with MPA dosed group) [1, 5]: 58.1 fold

CCCCCCCCCCCCCCCC(=O)OCC(COC(=O)CCCCCCCCCCCCCCC)OC(=O)CCCCSC(=O)CC/C(C)=C/Cc1c(O)c2c(c(C)c1OC)COC2=O [Compound 40]
Transport of total MPA derivatives in lymph (% of dose) [1, 4]: 10.2 ± 3.0 % of dose
Fold increase (compared with MPA dosed group) [1, 5]: 61.1 fold

COCCc1ccc(OCC(O)CNC(C)C)cc1 (stereo not shown) [MET, metoprolol, reference compound]
Increase fold (compared with parent drug group) [1, 6]: 1.0 fold
Transport of total drug derivatives in lymph (% of dose) [1, 6]: 0.02 ± 0.01 % of dose

COc1c(C)c2c(c(O)c1C/C=C(\C)CCC(=O)O)C(=O)OC2 [MPA, mycophenolic acid, reference compound]
Fold increase (compared with MPA dosed group) [1, 6]: 1.0 fold
Transport of total MPA derivatives in lymph (% of dose) [1, 6]: 0.17 ± 0.05 % of dose

CN[C@H]1CC[C@@H](c2ccc(Cl)c(Cl)c2)c2ccccc21 [SER, sertraline, reference compound]
Increase fold (compared with parent drug group) [1, 6]: 1.0 fold
Transport of total drug derivatives in lymph (% of dose) [1, 6]: 0.05 % of dose
